Assay results published in patent publication US4673665A, “Process for treating anestrus in ewes or beef cattle” (Hoechst Aktiengesellschaft, priority 1982, dated 1987).

How the values were obtained:
monkey = conditions: continuous intravenous injection of LH-RH; cited from earlier work
beef cows [1] = assay: Example 2: LH-RH injections at 2 hourly intervals or constant infusion in early post-partum beef cows; progesterone and LH level; format: in vivo, beef cattle; conditions: for No. showing progesterone rise: 2 to 4 days
Procedure: 17 Beef cows were injected with 1.0, 2.5 and 5.0 μg of LH-RH, respectively, in the early post-partum period during 2 to 4 days at 2 hourly intervals, while 21 beef cows were given a constant infusion of identical dosage per unit of time during the same period of time.
Blood samples were taken prior to and during the treatments to determine the LH level. Blood samples for determining the progesterone level were taken during a prolonged period of time after the treatment.

female mature ewes = assay: Example 1: progesterone implant pretreatment, then constant LH-RH infusion in ewes; mating, ovulation (laparoscopy), pregnancy; format: in vivo, sheep (Clun Forest, Welsh Halfbred); conditions: for number of ovulations: laparoscopy
Procedure: Implants containing progesterone were administered subcutaneously to 28 female mature ewes of two different breeds ("Clun Forest" and "Welsh Halfbred") for a period of 14 days. 12 Ewes were infused constantly with 125 to 250 ng of LH-RH per hour over a period of 48 hours 2 hours before withdrawing the implants. Four ewes treated with a saline solution served as a control. The sheep were examined by laparoscopy to test them for ovulation, moreover blood samples were taken to determine the progesterone level. 24 hours after starting the infusions, onset of estrus was observed using fertile rams at 4 hourly intervals and the ewes in estrus were mated.

sheep [2] = conditions: i.v. injections of 250, 500 and 1,000 ng LH-RH at 2 hourly intervals over 8 days, no gestagen pretreatment; cited from earlier work
beef cows [3] = assay: Example 3: PRID progesterone device for 8 days, then constant LH-RH infusion in post-partum beef cows; ovulation; format: in vivo, beef cattle; conditions: PRID for 8 days, then LH-RH constant infusion 2.5 μg/2 h; 5 beef cows
Procedure: 5 Beef cows were treated in the early post-partum period over a period of 8 days by inserting in them an intravaginal device (PRID® of the firm Abbott) containing progesterone. Following withdrawal of the device a LH-RH constant infusion in doses of 2.5 μg/2 h was carried out in the manner described in Example 2. Ovulation occurred during the treatment in all cows, said ovulation being characterized by an increase in the progesterone plasma level.

sheep [4] = conditions: 14-day s.c. progesterone implant, then 250 ng LH-RH at 2 hourly intervals for 48 hours, cited from earlier work
[5] = 125 ng of LH-RH/h constant infusion for 48 h after 14-day progesterone implant
[6] = 250 ng LH-RH/h constant infusion for 48 h after 14-day progesterone implant

## LH-RH: LH/FSH-releasing hormone, provokes release of LH and FSH from the pituitary gland
monkey
  pulsed LH release followed by induction of menstrual cycle and ovulation: failed
Beef cows [1]; all test animals, irrespective of mode of administration and dose (1.0, 2.5, 5.0 μg)
  plasma LH concentrations during treatment phase compared to pretreatment phase: distinct increase
Beef cows [1]; constant infusion 1.0 μg/2 h, total 6 + 3 cows
  No. showing progesterone rise: 2
Beef cows [1]; constant infusion 1.0 μg/2 h, the 3 cows with calvings in summer
  number of animals that responded (progesterone rise): 2
Beef cows [1]; constant infusion 1.0 μg/2 h, the 6 cows treated after spring calvings
  response (progesterone rise): did not respond
Beef cows [1]; constant infusion 2.5 μg/2 h, total 6 cows
  No. showing progesterone rise: 4
Beef cows [1]; constant infusion 5.0 μg/2 h, total 6 cows
  No. showing progesterone rise: 4
Beef cows [1]; injections at 2 hourly intervals, 1.0 μg, total 6 cows
  No. showing progesterone rise: 4
Beef cows [1]; injections at 2 hourly intervals, 2.5 μg, total 6 cows
  No. showing progesterone rise: 4
Beef cows [1]; injections at 2 hourly intervals, 5.0 μg, total 5 cows
  No. showing progesterone rise: 4
Female mature ewes; [5]
  rate of ovulations: 1.4
  number of ovulations: 9
Female mature ewes; 125 ng of LH-RH/h constant infusion for 48 h after 14-day s.c. progesterone implant
  number of mated sheep: 10
Female mature ewes; [6]
  rate of ovulations: 1.5
  number of ovulations: 12
Female mature ewes; 250 ng LH-RH/h constant infusion for 48 h after 14-day s.c. progesterone implant
  number of mated sheep: 11
Female mature ewes; ewes treated with LH-RH after progesterone implant and mated
  pregnancy rate: 75%
Sheep [2]
  induction of estrus: could not be induced
Beef cows [3]
  cows in which ovulation occurred during the treatment (increase in progesterone plasma level): all cows
Sheep [4]; 5 bred sheep
  number of bred sheep that became pregnant: 3
Sheep [4]; 5 sheep
  estrus and ovulation: induced
